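Five compound concentrations were applied to cells in 96-well plates for 48 hours; endpoints were derived by simple linear interpolation of the resulting dose-response curve. At the GI50, growth is halved. TGI is the concentration that stops growth completely.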
Key:
Test in all cases: inhibition of tumour cell growth, NCI panel, 48 h
CAKI-1 renal = test system: CAKI-1 renal
HCC-2998 colon = test system: HCC-2998 colon
HCT-15 colon = test system: HCT-15 colon
MDA-MB-435 = test system: MDA-MB-435
MOLT-4 leukemia = test system: MOLT-4 leukemia
SF-268 CNS = test system: SF-268 CNS
SK-OV-3 ovarian = test system: SK-OV-3 ovarian
SR leukemia = test system: SR leukemia
TK-10 renal = test system: TK-10 renal
U251 CNS = test system: U251 CNS

Question: Which results are given for `C=CC1=C[C@@H]2[C@@H]3O[C@]4(CC[C@H](O4)[C@@H](C)C[C@@H](O)C3=O)C[C@H](O)C3=NCC[C@@]32CC1`?
Answer: GI50 (CAKI-1 renal): < 0.00333 µM; TGI (CAKI-1 renal): 0.00617 µM; GI50 (HCC-2998 colon): < 0.00333 µM; TGI (HCC-2998 colon): < 0.00333 µM; GI50 (HCT-15 colon): < 0.00333 µM; TGI (HCT-15 colon): < 0.00333 µM; GI50 (MDA-MB-435): < 0.00333 µM; TGI (MDA-MB-435): 0.00334 µM; GI50 (MOLT-4 leukemia): < 0.00333 µM; TGI (MOLT-4 leukemia): 0.112 µM; GI50 (SF-268 CNS): < 0.00333 µM; TGI (SF-268 CNS): 0.00575 µM; GI50 (SK-OV-3 ovarian): < 0.00333 µM; TGI (SK-OV-3 ovarian): 0.00795 µM; GI50 (SR leukemia): < 0.00333 µM; TGI (SR leukemia): > 33.3 µM; GI50 (TK-10 renal): < 0.00333 µM; TGI (TK-10 renal): 0.00385 µM; GI50 (U251 CNS): < 0.00333 µM; TGI (U251 CNS): 0.39 µM

Question: `O=C(CCCCCCSc1nc(-c2ccccc2)cc(-c2ccccc2)n1)NO` was tested. Which GI50 (CAKI-1 renal) did it give?
Answer: The GI50 was 1.56 µM.

Question: What about the TGI (CAKI-1 renal) of the same compound?
Answer: Its TGI is 6.39 µM.

Question: And the GI50 (HCC-2998 colon)?
Answer: The GI50 was 3.07 µM.

Question: And the TGI (HCC-2998 colon)?
Answer: Its TGI is 11.9 µM.

Question: And the GI50 (HCT-15 colon)?
Answer: Its GI50 is 2.29 µM.

Question: What about the TGI (HCT-15 colon) of the same compound?
Answer: Its TGI is 10.6 µM.

Question: And the GI50 (MDA-MB-435)?
Answer: Its GI50 is 1.98 µM.

Question: What about the TGI (MDA-MB-435) of the same compound?
Answer: Its TGI is 11.2 µM.

Question: What about the GI50 (MOLT-4 leukemia) of the same compound?
Answer: The GI50 was 0.42 µM.

Question: And the TGI (MOLT-4 leukemia)?
Answer: The TGI was 3.3 µM.

Question: And the GI50 (SF-268 CNS)?
Answer: The GI50 was 2.7 µM.

Question: What about the TGI (SF-268 CNS) of the same compound?
Answer: The TGI was 7.42 µM.

Question: And the GI50 (SK-OV-3 ovarian)?
Answer: The GI50 was 2.42 µM.

Question: What about the TGI (SK-OV-3 ovarian) of the same compound?
Answer: Its TGI is 8.84 µM.

Question: What about the GI50 (SR leukemia) of the same compound?
Answer: Its GI50 is 0.322 µM.

Question: And the TGI (SR leukemia)?
Answer: Its TGI is 3.87 µM.

Question: What about the GI50 (TK-10 renal) of the same compound?
Answer: The GI50 was 2.51 µM.

Question: And the TGI (TK-10 renal)?
Answer: Its TGI is 13.5 µM.

Question: And the GI50 (U251 CNS)?
Answer: Its GI50 is 1.51 µM.

Question: What about the TGI (U251 CNS) of the same compound?
Answer: Its TGI is 4.08 µM.

Question: What does the source list for `CS(=O)(=O)c1ccc(-c2cnc(N)c(C(=O)Nc3ccccc3)n2)cc1`?
Answer: GI50 (CAKI-1 renal): 4.96 µM; TGI (CAKI-1 renal): > 55.8 µM; GI50 (HCC-2998 colon): 3.9 µM; TGI (HCC-2998 colon): > 100 µM; GI50 (HCT-15 colon): 5.92 µM; TGI (HCT-15 colon): > 100 µM; GI50 (MDA-MB-435): > 100 µM; TGI (MDA-MB-435): > 100 µM; GI50 (MOLT-4 leukemia): 3.4 µM; TGI (MOLT-4 leukemia): > 100 µM; GI50 (SF-268 CNS): 25 µM; TGI (SF-268 CNS): > 100 µM; GI50 (SK-OV-3 ovarian): 6.85 µM; TGI (SK-OV-3 ovarian): > 100 µM; GI50 (SR leukemia): 2.39 µM; TGI (SR leukemia): > 100 µM; GI50 (TK-10 renal): 16.9 µM; TGI (TK-10 renal): > 100 µM; GI50 (U251 CNS): 31.7 µM; TGI (U251 CNS): > 100 µM

— PubChem BioAssay (NCI)
